# Test results as given in PMC9739105, “Myotoxin-3 from the Pacific Rattlesnake Crotalus oreganus oreganus Venom Is a New Microtubule-Targeting Agent” (Molecules, 2022).
# Where no end group is shown, it is not given here.
# Assays:
# EB1 = conditions: through phosphorylation of EB1 by GSK3; ref [34]; cited from earlier work
# [1] = tested on: bacteria/fungi (anti-microbial activity); conditions: without disulfide bonds; ref [18],[19]; cited from earlier work
# HeLa cells = conditions: ref [30]; cited from earlier work
# Source text: (§1) We also observed a different response of MCF-7 and U87 cells when measuring cell viability upon myotoxin-3 treatment. […] The tubulin isotype composition impacts the structural properties of microtubules and tunes their dynamics. Tubulin is also subjected to a large diversity of post-translational modifications that a ...
# MCF-7 cells = conditions: ref [30]; cited from earlier work
# Source text: as §1
# cell = conditions: ref [24]; cited from earlier work
# Source text: Moreover, myotoxin-3 altered the dynamics of microtubules in MCF-7 cells (Table 1). […] Disturbing the dynamic instability of microtubules is a hallmark o ...
# [2] = reference not given; cited from earlier work
# Source text: In summary, peak 1 contains two 45-residue peptides, i.e., myotoxin-3 (45-residue His^5-myotoxin-3) and one isoform with Leucine at position 5 (45-residue Leu^5-myotoxin-3). Peak 2 contains two shorter isoforms (43 residues) of myotoxin-3 with either Histidine (43-residue His^5-myotoxin-3) or Leucine at position 5 (43-residue Leu^5-myotoxin-3) (Figure 3). This structure resemblance explains the similarity in their chromatographic behavior.
# [3] = biological target: lamb brain αβ-tubulin heterodimer (lamb (purified from lamb brain)); test: ITC; PEAQ-ITC, 20 °C, 55 µM tubulin in the cell, 2.2 mM myotoxin 3 in the syringe, 20 mM sodium phosphate pH 6.5, 1 mM TCEP, 0.1 mM GTP (non-assembly buffer), one-set-of-sites model
molecule,measurement,setting,value
C[C@@H]1O[C@@H](O[C@@H]2C=C3CC[C@@H]4[C@H](CC[C@]5(C)[C@@H](c6ccc(=O)oc6)CC[C@]45O)[C@@]3(C)CC2)[C@H](O)[C@H](O)[C@H]1O [proscillaridin A],Effect on microtubule dynamics,EB1,affecting microtubule dynamics through the phosphorylation of EB1 by GSK3
"non-structured recombinant crotamine: non-structured recombinant crotamine expressed in bacteria (YKQCHKKGGHCFPKEKICLPPSSDFGKMDCRWRWKCCKKGSG; also: recombinant, without disulfide bonds; UniProt Q9PWF3 23-64, looked up)",Antimicrobial activity,[1],kept their antimicrobial activity
"non-structured crotamine: non-structured crotamine (without disulfide bonds) (YKQCHKKGGHCFPKEKICLPPSSDFGKMDCRWRWKCCKKGSG; without disulfide bonds; UniProt Q9PWF3 23-64, looked up)",Antimicrobial activity,[1],keeps its anti-microbial activity
"DTT-reduced crotamine: DTT-reduced crotamine (YKQCHKKGGHCFPKEKICLPPSSDFGKMDCRWRWKCCKKGSG; DTT-reduced; UniProt Q9PWF3 23-64, looked up)",Antimicrobial activity,[1],kept their antimicrobial activity
CC[C@]1(O)C[C@H]2CN(CCc3c([nH]c4ccccc34)[C@@](C(=O)OC)(c3cc4c(cc3OC)N(C=O)[C@H]3[C@@](O)(C(=O)OC)[C@H](OC(C)=O)[C@]5(CC)C=CCN6CC[C@]43[C@@H]65)C2)C1 [vincristine],Response of cells to vincristine,HeLa cells,detached and died
same,Response of cells to vincristine,MCF-7 cells,reattached to the culture flask after a failed mitosis and remained viable
C[C@]12CC[C@H](O)C[C@H]1CC[C@@H]1[C@@H]2CC[C@]2(C)[C@@H](c3ccc(=O)oc3)CC[C@]12O [bufalin],Effect on microtubule dynamics,EB1,affecting microtubule dynamics through the phosphorylation of EB1 by GSK3
crotamine,Cell penetration,cell,cell-penetrating properties
same,Anti-proliferative effect,[2],displaying an anti-proliferative effect
YKRCHKKGGHCFPKTVICLPPSSDFGKMDCRWKWKCCKKGSVNNA (cysteines not oxidized (no disulfide bonds)) [synthetic non-oxidized myotoxin-3 (without disulfide bonds)],Kd,[3],5.3 µM
same,stoichiometry N,[3]; scale: myotoxin-3 molecules per tubulin heterodimer,2
